Target: T1, human PTH1 receptor (Homo sapiens, UniProt Q03431)
T1 sequence (Q03431 27-593): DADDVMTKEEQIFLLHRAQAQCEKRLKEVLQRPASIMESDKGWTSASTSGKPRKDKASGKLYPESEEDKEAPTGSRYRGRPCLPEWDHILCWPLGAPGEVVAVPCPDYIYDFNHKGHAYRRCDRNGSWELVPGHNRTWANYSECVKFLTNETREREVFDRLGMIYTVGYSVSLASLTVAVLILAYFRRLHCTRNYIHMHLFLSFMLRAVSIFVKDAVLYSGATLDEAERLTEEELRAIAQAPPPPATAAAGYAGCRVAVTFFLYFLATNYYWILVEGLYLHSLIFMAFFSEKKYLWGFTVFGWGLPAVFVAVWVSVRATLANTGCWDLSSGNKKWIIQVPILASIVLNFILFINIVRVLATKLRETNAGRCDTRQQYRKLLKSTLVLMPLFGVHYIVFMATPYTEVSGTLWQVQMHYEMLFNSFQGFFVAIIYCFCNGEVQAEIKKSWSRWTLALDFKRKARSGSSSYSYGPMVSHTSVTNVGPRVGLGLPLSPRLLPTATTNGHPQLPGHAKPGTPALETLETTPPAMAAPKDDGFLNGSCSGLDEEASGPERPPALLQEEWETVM
Assay: In vitro cAMP signal activity in HKRK-B7 cells (LLC-PK1 cells overexpressing the human PTH1 receptor)
Format: cell-based
Settings: HKRK-B7 cells; compound at 1×10^−3 M; cAMP produced as percentage of that produced by hPTH(1-34) at 100 nM

Row | Structure (SMILES) | cAMP production activity (%)
1 | Cc1cc(N(C)C(N)=O)cc(C)c1CC[S@TB4](=O)(=O)N1CCC2(CC1)N=C(CCCCCCCCCCC(F)F)NC2=O [Compound 1156, 1-(4-{2-[2-(11,11-difluoro-undecyl)-4-oxo-1,3,8-triaza-spiro[4.5]dec-1-ene-8-sulfonyl]-ethyl}-3,5-dimethyl-phenyl)-1-methyl-urea] | 77%
2 | Cc1cc(C(=O)N2CCC(O)CC2)cc(C)c1/C=C/[S@TB4](=O)(=O)N1CCC2(CC1)N=C(c1ccc(F)c(OC(F)(F)F)c1)NC2=O [Compound 1159, 2-(4-fluoro-3-trifluoromethoxy-phenyl)-8-{(E)-2-[4-(4-hydroxy-piperidine-1-carbonyl)-2,6-dimethyl-phenyl]-ethenesulfonyl}-1,3,8-triaza-spiro[4.5]dec-1-en-4-one] | 87%
3 | Cc1cc(C(=O)N2CCC(CO)CC2)cc(C)c1/C=C/S(=O)(=O)N1CCC2(CC1)N=C(c1ccc(F)c(OC(F)(F)F)c1)NC2=O [Compound 1161, 2-(4-Fluoro-3-trifluoromethoxy-phenyl)-8-{(E)-2-[4-(4-hydroxymethyl-piperidine-1-carbonyl)-2,6-dimethyl-phenyl]-ethenesulfonyl}-1,3,8-triaza-spiro[4.5]dec-1-en-4-one] | 84%
4 | Cc1cc(C(=O)N2CCC(C)(O)CC2)cc(C)c1/C=C/S(=O)(=O)N1CCC2(CC1)N=C(c1ccc3c(c1)OC(F)(F)O3)NC2=O [Compound 1163, 2-(2,2-Difluoro-benzo[1,3]dioxol-5-yl)-8-{(E)-2-[4-(4-hydroxy-4-methyl-piperidine-1-carbonyl)-2,6-dimethyl-phenyl]-ethenesulfonyl}-1,3,8-triaza-spiro[4.5]dec-1-en-4-one] | 101%
5 | Cc1cc(OC[C@H](O)CO)cc(C)c1/C=C/S(=O)(=O)N1CCC2(CC1)N=C(c1ccc(F)c(OC(F)(F)F)c1)NC2=O [Compound 1164, 8-{(E)-2-[4-((R)-2,3-Dihydroxy-propoxy)-2,6-dimethyl-phenyl]-ethenesulfonyl}-2-(4-fluoro-3-trifluoromethoxy-phenyl)-1,3,8-triaza-spiro[4.5]dec-1-en-4-one] | 4.7%
6 | Cc1cc(OC[C@H](O)CO)cc(C)c1/C=C/S(=O)(=O)N1CCC2(CC1)N=C(c1ccc3c(c1)OC(F)(F)O3)NC2=O [Compound 1165, 2-(2,2-difluoro-benzo[1,3]dioxol-5-yl)-8-{(E)-2-[4-((R)-2,3-dihydroxy-propoxy)-2,6-dimethyl-phenyl]-ethenesulfonyl}-1,3,8-triaza-spiro[4.5]dec-1-en-4-one] | 4.3%
7 | Cc1cc(OCCC(O)CO)ccc1/C=C/S(=O)(=O)N1CCC2(CC1)N=C(c1ccc(F)c(OC(F)(F)F)c1)NC2=O (centres unmarked) [Compound 1166, 8-{(E)-2-[4-(3,4-Dihydroxy-butoxy)-2-methyl-phenyl]-ethenesulfonyl}-2-(4-fluoro-3-trifluoromethoxy-phenyl)-1,3,8-triaza-spiro[4.5]dec-1-en-4-one] | 144%
8 | Cc1cc(OCCC(O)CO)ccc1/C=C/S(=O)(=O)N1CCC2(CC1)N=C(c1ccc3c(c1)OC(F)(F)O3)NC2=O (centres unmarked) [Compound 1167, 2-(2,2-difluoro-benzo[1,3]dioxol-5-yl)-8-{(E)-2-[4-(3,4-dihydroxy-butoxy)-2-methyl-phenyl]-ethenesulfonyl}-1,3,8-triaza-spiro[4.5]dec-1-en-4-one] | 115%
9 | Cc1cc(N(C)C(N)=O)cc(C)c1/C=C/S(=O)(=O)N1CCC2(CC1)N=C(CCCCCCCCCC(=O)O)NC2=O [Compound 1171, 10-(8-{(E)-2-[2,6-Dimethyl-4-(1-methyl-ureido)-phenyl]-ethenesulfonyl}-4-oxo-1,3,8-triaza-spiro[4.5]dec-1-en-2-yl)-decanoic acid] | 28%
10 | Cc1cc(N(C)C(N)=O)cc(C)c1/C=C/S(=O)(=O)N1CCC2(CC1)N=C(CCCCCCCCCCCC(N)=O)NC2=O [Compound 1173, 12-(8-{(E)-2-[2,6-dimethyl-4-(1-methyl-ureido)-phenyl]-ethenesulfonyl}-4-oxo-1,3,8-triaza-spiro[4.5]dec-1-en-2-yl)-dodecanoic acid amide] | 85%
11 | Cc1cc2nc(N)oc2c(C)c1CCS(=O)(=O)N1CCC2(CC1)N=C(C1CCC(C)CC1)NC2=O (centres unmarked) [Compound 1178, 8-[2-(2-Amino-5,7-dimethyl-benzoxazol-6-yl)-ethanesulfonyl]-2-(4-methyl-cyclohexyl)-1,3,8-triaza-spiro[4.5]dec-1-en-4-one] | 84%

Now from value to compound:

Row | cAMP production activity (%) | Structure (SMILES)
12 | 83% | Cc1cc(N(C)C(N)=O)cc(C)c1CC[S@TB4](=O)(=O)N1CCC2(CC1)N=C(c1cccc(-c3cccc(-c4ccccc4)c3)c1)NC2=O [Compound 1155, 1-{3,5-dimethyl-4-[2-(4-oxo-2-[1,1′;3′,1″]terphenyl-3-yl-1,3,8-triaza-spiro[4.5]dec-1-ene-8-sulfonyl)-ethyl]-phenyl}-1-methyl-urea]
13 | 44% | Cc1cc(N(C)C(N)=O)cc(C)c1/C=C/S(=O)(=O)N1CCC2(CC1)N=C(c1cccc(-c3cccc(-c4ccccc4)c3)c1)NC2=O [Compound 1157, 1-{3,5-Dimethyl-4-[(E)-2-(4-oxo-2-[1,1′;3′,1″]terphenyl-3-yl-1,3,8-triaza-spiro[4.5]dec-1-ene-8-sulfonyl)-vinyl]-phenyl}-1-methyl-urea]
14 | 103% | Cc1cc(C(=O)N2CCC(O)CC2)cc(C)c1/C=C/S(=O)(=O)N1CCC2(CC1)N=C(c1cccc(OCCCC(F)(F)C(F)(F)F)c1)NC2=O [Compound 1158, 8-{(E)-2-[4-(4-Hydroxy-piperidine-1-carbonyl)-2,6-dimethyl-phenyl]-ethenesulfonyl}-2-[3-(4,4,5,5,5-pentafluoro-pentyloxy)-phenyl]-1,3,8-triaza-spiro[4.5]dec-1-en-4-one]
15 | 84% | Cc1cc(C(=O)N2CCC(O)CC2)cc(C)c1/C=C/[S@TB4](=O)(=O)N1CCC2(CC1)N=C(c1ccc3c(c1)OC(F)(F)O3)NC2=O [Compound 1160, 2-(2,2-difluoro-benzo[1,3]dioxol-5-yl)-8-{(E)-2-[4-(4-hydroxy-piperidine-1-carbonyl)-2,6-dimethyl-phenyl]-ethenesulfonyl}-1,3,8-triaza-spiro[4.5]dec-1-en-4-one]
16 | 112% | Cc1cc(C(=O)N2CCC(CO)CC2)cc(C)c1/C=C/[S@TB4](=O)(=O)N1CCC2(CC1)N=C(c1ccc(F)c(C(F)(F)F)c1)NC2=O [Compound 1162, 2-(4-fluoro-3-trifluoromethyl-phenyl)-8-{(E)-2-[4-(4-hydroxymethyl-piperidine-1-carbonyl)-2,6-dimethyl-phenyl]-ethenesulfonyl}-1,3,8-triaza-spiro[4.5]dec-1-en-4-one]
17 | 27% | O=C(O)Cn1ccc2c(/C=C/S(=O)(=O)N3CCC4(CC3)N=C(C3CCCCC3)NC4=O)cccc21 [Compound 1168, {4-[(E)-2-(2-Cyclohexyl-4-oxo-1,3,8-triaza-spiro[4.5]dec-1-ene-8-sulfonyl)-vinyl]-indol-1-yl}-acetic acid]
18 | 50% | Cc1cc(NC(=O)NCC(=O)O)ccc1/C=C/S(=O)(=O)N1CCC2(CC1)N=C(C1CCC(C)CC1)NC2=O (centres unmarked) [Compound 1169, [3-(3-methyl-4-{(E)-2-[2-(4-methyl-cyclohexyl)-4-oxo-1,3,8-triaza-spiro[4.5]dec-1-ene-8-sulfonyl]-vinyl}-phenyl)-ureido]-acetic acid]
19 | 24% | Cc1cc(N(C)C(N)=O)cc(C)c1CCS(=O)(=O)N1CCC2(CC1)N=C(CCCCCCCCCCCC(=O)O)NC2=O [Compound 1170, 12-(8-{2-[2,6-dimethyl-4-(1-methyl-ureido)-phenyl]-ethanesulfonyl}-4-oxo-1,3,8-triaza-spiro[4.5]dec-1-en-2-yl)-dodecanoic acid]
20 | 73% | Cc1cc(N(C)C(N)=O)cc(C)c1/C=C/S(=O)(=O)N1CCC2(CC1)N=C(CCCCCCCCCC(N)=O)NC2=O [Compound 1172, 10-(8-{(E)-2-[2,6-Dimethyl-4-(1-methyl-ureido)-phenyl]-ethenesulfonyl}-4-oxo-1,3,8-triaza-spiro[4.5]dec-1-en-2-yl)-decanoic amide]
21 | 91% | Cc1cc(N(C)C(N)=O)cc(C)c1CCS(=O)(=O)N1CCC2(CC1)N=C(CCCCCCCCCCCC(N)=O)NC2=O [Compound 1174, 12-(8-{2-[2,6-dimethyl-4-(1-methyl-ureido)-phenyl]-ethanesulfonyl}-4-oxo-1,3,8-triaza-spiro[4.5]dec-1-en-2-yl)-dodecanoic acid amide]
22 | 81% | Cc1cc(N(C)C(N)=O)cc(C)c1/C=C/S(=O)(=O)N1CCC2(CC1)N=C(CCCCCCCCCCCCCC(N)=O)NC2=O [Compound 1175, 14-(8-{(E)-2-[2,6-dimethyl-4-(1-methyl-ureido)-phenyl]-ethenesulfonyl}-4-oxo-1,3,8-triaza-spiro[4.5]dec-1-en-2-yl)-tetradecanoic acid amide]
23 | 82% | Cc1cc(N(C)C(N)=O)cc(C)c1CCS(=O)(=O)N1CCC2(CC1)N=C(CCCCCCCCCCCCCC(N)=O)NC2=O [Compound 1176, 14-(8-{2-[2,6-dimethyl-4-(1-methyl-ureido)-phenyl]-ethanesulfonyl}-4-oxo-1,3,8-triaza-spiro[4.5]dec-1-en-2-yl)-tetradecanoic acid amide]

— patent US9169254B2, “Spiroimidazolone derivative” (Chugai Seiyaku Kabushiki Kaisha, priority 2009, dated 2015)
